From patent publication US20090304692A1, “TRIAZINE COMPOUNDS AS PI3 KINASE AND MTOR INHIBITORS” (Wyeth, priority 2008, published 2009)
Where “and” joins values, the source holds several entries; their conditions need not be identical. Equal values may be shown once. Read-outs that look alike come from different tables or passages of the source.

Assays:
[1] = molecular target: Human mTOR (FLAG-TOR) (Homo sapiens, UniProt P42345); experiment: mTOR kinase assay (DELFIA format, purified enzyme); type: biochemical; conditions: read-out: IC50 mTOR
Chain of Human mTOR (FLAG-TOR) (P42345 1360-2549 limits assumed): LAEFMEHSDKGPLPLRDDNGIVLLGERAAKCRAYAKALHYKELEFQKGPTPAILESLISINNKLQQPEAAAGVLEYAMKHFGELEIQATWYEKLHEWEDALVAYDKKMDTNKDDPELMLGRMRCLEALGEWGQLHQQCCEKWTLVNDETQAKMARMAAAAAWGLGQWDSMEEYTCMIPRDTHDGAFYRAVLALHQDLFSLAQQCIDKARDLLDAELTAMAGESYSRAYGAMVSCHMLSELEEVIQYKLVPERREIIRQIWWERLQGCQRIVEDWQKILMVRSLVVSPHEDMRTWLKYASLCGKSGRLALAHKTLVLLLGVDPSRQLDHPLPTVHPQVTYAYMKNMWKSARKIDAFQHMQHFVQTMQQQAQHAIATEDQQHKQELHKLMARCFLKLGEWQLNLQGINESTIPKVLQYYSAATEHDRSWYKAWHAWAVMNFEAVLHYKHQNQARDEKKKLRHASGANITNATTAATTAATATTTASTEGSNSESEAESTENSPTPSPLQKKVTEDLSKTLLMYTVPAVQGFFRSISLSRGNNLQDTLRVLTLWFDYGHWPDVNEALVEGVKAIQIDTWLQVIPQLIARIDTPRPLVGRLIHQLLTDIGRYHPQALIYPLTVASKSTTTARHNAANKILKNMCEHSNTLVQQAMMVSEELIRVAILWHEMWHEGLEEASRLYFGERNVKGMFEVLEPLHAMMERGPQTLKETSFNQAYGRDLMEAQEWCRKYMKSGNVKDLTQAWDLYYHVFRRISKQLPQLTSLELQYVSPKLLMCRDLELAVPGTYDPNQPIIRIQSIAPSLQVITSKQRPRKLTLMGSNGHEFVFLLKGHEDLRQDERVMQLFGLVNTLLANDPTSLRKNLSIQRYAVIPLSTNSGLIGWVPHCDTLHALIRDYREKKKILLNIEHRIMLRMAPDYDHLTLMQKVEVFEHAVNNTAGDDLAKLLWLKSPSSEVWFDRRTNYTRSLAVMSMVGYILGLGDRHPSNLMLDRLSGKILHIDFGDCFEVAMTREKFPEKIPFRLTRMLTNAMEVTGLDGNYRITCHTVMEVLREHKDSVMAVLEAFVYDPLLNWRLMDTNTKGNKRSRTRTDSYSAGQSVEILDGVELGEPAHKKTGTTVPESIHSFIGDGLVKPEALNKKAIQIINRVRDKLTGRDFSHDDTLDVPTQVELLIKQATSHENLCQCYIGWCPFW

[2] = tested on: human prostate PC3-mm2 tumor cell line; experiment: In vitro cell culture growth assay (MTS), PC3-mm2; type: cell-based; conditions: Homo sapiens, PC3MM2, 72 h, MTS cell growth assay, three days after drug treatment, read-out: IC50 PC3-mm2
[3] = tested on: human breast MDA-MB-361 tumor cell line; experiment: In vitro cell culture growth assay (MTS), MDA-MB-361; type: cell-based; conditions: Homo sapiens, MDA-MB-361, 72 h, MTS cell growth assay, three days after drug treatment, read-out: IC50 MDA-MB-361
[4] = molecular target: PI3K-γ (Homo sapiens, UniProt P48736); experiment: PI3K-gamma fluorescence polarization assay; conditions: read-out: IC50 PI3Kγ
Chain of PI3K-γ (P48736 whole entry, species assumed): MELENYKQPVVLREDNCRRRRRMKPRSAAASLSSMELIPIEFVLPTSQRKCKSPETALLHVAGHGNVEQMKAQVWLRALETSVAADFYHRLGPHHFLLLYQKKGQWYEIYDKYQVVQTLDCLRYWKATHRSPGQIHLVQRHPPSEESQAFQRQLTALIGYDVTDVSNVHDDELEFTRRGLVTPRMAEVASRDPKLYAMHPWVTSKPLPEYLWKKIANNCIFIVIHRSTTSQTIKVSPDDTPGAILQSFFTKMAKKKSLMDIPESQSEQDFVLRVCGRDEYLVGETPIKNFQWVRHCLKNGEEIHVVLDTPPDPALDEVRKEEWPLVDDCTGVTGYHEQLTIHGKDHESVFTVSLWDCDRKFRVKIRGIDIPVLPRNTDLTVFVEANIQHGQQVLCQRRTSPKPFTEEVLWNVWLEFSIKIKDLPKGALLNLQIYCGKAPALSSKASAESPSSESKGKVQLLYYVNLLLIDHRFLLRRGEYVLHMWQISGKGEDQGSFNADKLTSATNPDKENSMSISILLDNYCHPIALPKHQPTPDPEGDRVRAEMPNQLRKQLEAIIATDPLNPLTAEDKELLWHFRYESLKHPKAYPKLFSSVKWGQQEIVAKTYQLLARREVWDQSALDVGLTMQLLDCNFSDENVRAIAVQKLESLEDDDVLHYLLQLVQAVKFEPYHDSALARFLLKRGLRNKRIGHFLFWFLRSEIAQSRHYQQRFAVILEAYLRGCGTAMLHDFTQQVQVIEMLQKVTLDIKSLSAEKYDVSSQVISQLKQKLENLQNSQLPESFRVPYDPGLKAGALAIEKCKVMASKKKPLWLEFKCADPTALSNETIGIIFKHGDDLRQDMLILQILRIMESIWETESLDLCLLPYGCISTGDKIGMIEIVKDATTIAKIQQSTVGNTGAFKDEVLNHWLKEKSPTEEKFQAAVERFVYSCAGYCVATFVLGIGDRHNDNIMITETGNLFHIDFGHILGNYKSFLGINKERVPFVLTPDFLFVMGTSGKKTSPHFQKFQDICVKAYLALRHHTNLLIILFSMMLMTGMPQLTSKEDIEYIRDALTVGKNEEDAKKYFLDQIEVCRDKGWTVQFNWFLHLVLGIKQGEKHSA

[5] = molecular target: PI3K-α (Homo sapiens, UniProt P42336); experiment: PI3K-alpha fluorescence polarization assay
Chain of PI3K-α (P42336 whole entry, species assumed): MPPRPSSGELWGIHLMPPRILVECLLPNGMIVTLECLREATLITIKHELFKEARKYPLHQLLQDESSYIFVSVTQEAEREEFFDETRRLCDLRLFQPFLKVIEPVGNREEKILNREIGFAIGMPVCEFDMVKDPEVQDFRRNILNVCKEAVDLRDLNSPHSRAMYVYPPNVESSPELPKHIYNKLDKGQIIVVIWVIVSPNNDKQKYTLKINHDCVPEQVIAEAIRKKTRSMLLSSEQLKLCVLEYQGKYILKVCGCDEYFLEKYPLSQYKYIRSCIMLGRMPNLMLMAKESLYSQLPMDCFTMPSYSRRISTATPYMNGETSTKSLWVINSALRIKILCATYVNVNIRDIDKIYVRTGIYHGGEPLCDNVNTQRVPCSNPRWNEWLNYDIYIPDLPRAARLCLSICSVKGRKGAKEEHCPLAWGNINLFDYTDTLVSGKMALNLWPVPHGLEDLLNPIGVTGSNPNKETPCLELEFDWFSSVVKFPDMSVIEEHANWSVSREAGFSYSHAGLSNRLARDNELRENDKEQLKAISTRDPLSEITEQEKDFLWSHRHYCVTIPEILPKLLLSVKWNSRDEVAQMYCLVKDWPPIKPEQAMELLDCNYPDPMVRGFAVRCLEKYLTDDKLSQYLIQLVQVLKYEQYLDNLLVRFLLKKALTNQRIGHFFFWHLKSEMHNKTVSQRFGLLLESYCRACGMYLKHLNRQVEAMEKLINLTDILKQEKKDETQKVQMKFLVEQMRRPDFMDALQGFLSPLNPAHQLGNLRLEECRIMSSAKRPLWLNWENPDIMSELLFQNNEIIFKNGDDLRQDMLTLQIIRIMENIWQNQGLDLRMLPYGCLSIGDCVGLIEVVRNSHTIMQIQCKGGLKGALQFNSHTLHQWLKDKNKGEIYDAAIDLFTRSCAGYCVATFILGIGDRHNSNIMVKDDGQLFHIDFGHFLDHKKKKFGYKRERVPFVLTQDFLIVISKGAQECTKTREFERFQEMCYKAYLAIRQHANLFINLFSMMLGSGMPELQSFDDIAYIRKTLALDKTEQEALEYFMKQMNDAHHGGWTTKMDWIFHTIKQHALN
Chain of PI3K-α (P27986 whole entry partner, species assumed): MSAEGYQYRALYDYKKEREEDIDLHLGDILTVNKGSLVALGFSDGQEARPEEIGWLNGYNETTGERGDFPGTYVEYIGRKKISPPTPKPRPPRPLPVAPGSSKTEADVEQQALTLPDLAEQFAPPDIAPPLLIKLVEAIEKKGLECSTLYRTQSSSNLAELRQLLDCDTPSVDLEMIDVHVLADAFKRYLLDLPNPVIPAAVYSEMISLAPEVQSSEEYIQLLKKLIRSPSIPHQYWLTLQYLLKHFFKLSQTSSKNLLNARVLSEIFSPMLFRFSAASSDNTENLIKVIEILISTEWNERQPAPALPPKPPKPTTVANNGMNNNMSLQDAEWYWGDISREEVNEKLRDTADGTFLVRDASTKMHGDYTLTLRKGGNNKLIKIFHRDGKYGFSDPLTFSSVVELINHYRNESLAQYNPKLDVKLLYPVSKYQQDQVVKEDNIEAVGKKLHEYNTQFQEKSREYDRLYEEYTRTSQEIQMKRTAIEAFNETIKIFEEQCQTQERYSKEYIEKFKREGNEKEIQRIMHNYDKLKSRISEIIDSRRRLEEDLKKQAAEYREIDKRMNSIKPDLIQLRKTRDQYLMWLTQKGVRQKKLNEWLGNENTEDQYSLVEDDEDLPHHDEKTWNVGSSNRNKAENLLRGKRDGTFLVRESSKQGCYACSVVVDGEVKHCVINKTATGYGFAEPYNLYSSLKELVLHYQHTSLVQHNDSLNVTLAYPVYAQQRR

IC50 [1]	IC50 ([2]; PC3-mm2 cells)	IC50 [2]	IC50 [3]	IC50 [4]	IC50 ([5]; read-out: IC50 PI3Kα)	SMILES	other results
70 nM and 69 nM	4310 nM	4310 nM	3100 nM	711 nM	46 nM	CC(C)NCCCc1nc(-c2ccc(NC(=O)Nc3ccncc3)cc2)nc(N2CCOCC2)n1 [Example 275, 1-[4-(4-{3-[(1-methylethyl)amino]propyl}-6-morpholin-4-yl-1,3,5-triazin-2-yl)phenyl]-3-pyridin-4-ylurea]	IC50 ([4]; listed as 732): 478 nM; IC50 ([5]; read-out: IC50 PI3Kα, listed as 732): 44 nM
60 nM and 75.5 nM	1650 nM	1650 nM	1350 nM	597 nM	34 nM	O=C(Nc1ccncc1)Nc1ccc(-c2nc(CCCN3CCCC3)nc(N3CCOCC3)n2)cc1 [Example 276, 1-{4-[4-morpholin-4-yl-6-(3-pyrrolidin-1-ylpropyl)-1,3,5-triazin-2-yl]phenyl}-3-pyridin-4-ylurea]	IC50 ([4]; listed as 733): 412 nM; IC50 ([5]; read-out: IC50 PI3Kα, listed as 733): 31.5 nM
60 nM and 59.5 nM	572 nM	572 nM	530 nM	276 nM	30 nM	CN1CCN(CCCc2nc(-c3ccc(NC(=O)Nc4ccncc4)cc3)nc(N3CCOCC3)n2)CC1 [Example 277, 1-(4-{4-[3-(4-methylpiperazin-1-yl)propyl]-6-morpholin-4-yl-1,3,5-triazin-2-yl}phenyl)-3-pyridin-4-ylurea]	IC50 ([4]; listed as 734): 210 nM; IC50 ([5]; read-out: IC50 PI3Kα, listed as 734): 25.5 nM
250 nM and 123 nM	3700 nM	3700 nM	2300 nM	344 nM	26 nM	CN(C)CCNCCCc1nc(-c2ccc(NC(=O)Nc3ccncc3)cc2)nc(N2CCOCC2)n1 [Example 278, 1-{4-[4-(3-{[2-(dimethylamino)ethyl]amino}propyl)-6-morpholin-4-yl-1,3,5-triazin-2-yl]phenyl}-3-pyridin-4-ylurea]	IC50 ([4]; listed as 735): 290 nM; IC50 ([5]; read-out: IC50 PI3Kα, listed as 735): 26.5 nM
35 nM and 3.6 nM	247 nM	247 nM	176 nM	70 nM	10 nM	O=C(Nc1ccncc1)Nc1ccc(-c2nc(CCCO)nc(N3CCOCC3)n2)cc1 [Example 279, 1-{4-[4-(3-hydroxypropyl)-6-morpholin-4-yl-1,3,5-triazin-2-yl]phenyl}-3-pyridin-4-ylurea]	IC50 ([4]; listed as 736): 53.5 nM; IC50 ([5]; read-out: IC50 PI3Kα, listed as 736): 9.5 nM
4 nM and 4.45 nM	404 nM	404 nM	176 nM	29 nM	5 nM	O=CCCc1nc(-c2ccc(NC(=O)Nc3ccncc3)cc2)nc(N2CCOCC2)n1 [Example 280, 1-{4-[4-morpholin-4-yl-6-(3-oxopropyl)-1,3,5-triazin-2-yl]phenyl}-3-pyridin-4-ylurea]	IC50 ([4]; listed as 737): 30 nM; IC50 ([5]; read-out: IC50 PI3Kα, listed as 737): 7 nM
4.7 nM and 4.05 nM	84 nM	84 nM	83 nM	32 nM	10 nM	O=C(Nc1ccncc1)Nc1ccc(-c2nc(N3CCOCC3)nc(N3CC4COC(C3)O4)n2)cc1 (stereo not drawn) [Example 282, 1-{4-[4-(6,8-dioxa-3-azabicyclo[3.2.1]oct-3-yl)-6-morpholin-4-yl-1,3,5-triazin-2-yl]phenyl}-3-pyridin-4-ylurea]	IC50 ([4]; listed as 740): 34.5 nM; IC50 ([5]; read-out: IC50 PI3Kα, listed as 740): 11.5 nM
3.1 nM	33.3 nM	33.3 nM	12.3 nM	11 nM	1 nM	CN(C)C1CCN(C(=O)c2ccc(NC(=O)Nc3ccc(-c4nc(C5=CCOCC5)nc(N5CCOCC5)n4)cc3)cc2)CC1 [Example 283, 1-{4-[4-(3,6-dihydro-2H-pyran-4-yl)-6-morpholin-4-yl-1,3,5-triazin-2-yl]phenyl}-3-(4-{[4-(dimethylamino)piperidin-1-yl]carbonyl}phenyl)urea]	IC50 ([3]; MDA-MB-361 cells): 12.3 nM; IC50 ([4]; listed as 505): 5 nM; IC50 ([5]; read-out: IC50 PI3Kα, listed as 505): 0.6 nM
0.9 nM and 0.97 nM	36.3 nM	36.3 nM	12 nM	12 nM	0.7 nM	CN(C)CCNC(=O)c1ccc(NC(=O)Nc2ccc(-c3nc(C4=CCOCC4)nc(N4CCOCC4)n3)cc2)cc1 [Example 284, 4-[({4-[4-(3,6-dihydro-2H-pyran-4-yl)-6-morpholin-4-yl-1,3,5-triazin-2-yl]phenyl}carbamoyl)amino]-N-[2-(dimethylamino)ethyl]benzamide]	IC50 ([4]; listed as 508): 12.5 nM; IC50 [5]: < 1.9 nM
18 nM		154 nM	69 nM	26 nM	9 nM	CCCc1nc(-c2ccc(NC(=O)Nc3ccc(N4CCN(C)CC4)cc3)cc2)nc(N2CCOCC2)n1 [Example 294, 1-[4-(4-methylpiperazin-1-yl)phenyl]-3-[4-(4-morpholin-4-yl-6-propyl-1,3,5-triazin-2-yl)phenyl]urea]	
29 nM		189 nM	133 nM	81 nM	19 nM	CCc1nc(-c2ccc(NC(=O)Nc3ccc(OCCN(C)C)cc3)cc2)nc(N2CCOCC2)n1 [Example 295, 1-{4-[2-(dimethylamino)ethoxy]phenyl}-3-[4-(4-ethyl-6-morpholin-4-yl-1,3,5-triazin-2-yl)phenyl]urea]	
21 nM		133 nM	83 nM	35 nM	13 nM	CCc1nc(-c2ccc(NC(=O)Nc3ccc(N4CCN(C)CC4)cc3)cc2)nc(N2CCOCC2)n1 [Example 296, 1-[4-(4-ethyl-6-morpholin-4-yl-1,3,5-triazin-2-yl)phenyl]-3-[4-(4-methylpiperazin-1-yl)phenyl]urea]	
21 nM		165 nM	38 nM	24 nM	2 nM	CCc1nc(-c2ccc(NC(=O)Nc3ccc(C(=O)N4CCNC(C)(C)C4)cc3)cc2)nc(N2CCOCC2)n1 [Example 298, 1-{4-[(3,3-dimethylpiperazin-1-yl)carbonyl]phenyl}-3-[4-(4-ethyl-6-morpholin-4-yl-1,3,5-triazin-2-yl)phenyl]urea]	
80 nM		219 nM	73 nM	34 nM	3 nM	CCc1nc(-c2ccc(NC(=O)Nc3ccc(C(=O)NC4CN(C)C4)cc3)cc2)nc(N2CCOCC2)n1 [Example 299, 4-({[4-(4-ethyl-6-morpholin-4-yl-1,3,5-triazin-2-yl)phenyl]carbamoyl}amino)-N-(1-methylazetidin-3-yl)benzamide]	
0.8 nM		759 nM	430 nM	58 nM	21 nM	CC(C)c1nc(-c2ccc(NC(=O)Nc3ccc(C(=O)O)cc3)cc2)nc(N2CCOCC2)n1 [Example 301, 4-[({4-[4-(1-methylethyl)-6-morpholin-4-yl-1,3,5-triazin-2-yl]phenyl}carbamoyl)amino]benzoic acid]	
36 nM		539 nM	299 nM	263 nM	35 nM	CC(O)c1ccc(NC(=O)Nc2ccc(-c3nc(N4CCOCC4)nc(N4C[C@H]5C[C@@H]4CN5C(=O)OC(C)(C)C)n3)cc2)cc1 (stereo partly drawn) [Example 302, tert-butyl-(1R,4R)-5-{4-[4-({[4-(1-hydroxyethyl)phenyl]carbamoyl}amino)phenyl]-6-morpholin-4-yl-1,3,5-triazin-2-yl}-2,5-diazabicyclo[2.2.1]heptane-2-carboxylate]	
0.6 nM		46 nM	4 nM	18 nM	1 nM	CC(C)c1nc(-c2ccc(NC(=O)Nc3ccc(C(=O)NCCN(C)C)cc3)cc2)nc(N2CCOCC2)n1 [Example 305, N-[2-(dimethylamino)ethyl]-4-[({4-[4-(1-methylethyl)-6-morpholin-4-yl-1,3,5-triazin-2-yl]phenyl}carbamoyl)amino]benzamide]	
2.1 nM		30 nM	7 nM	19 nM	1 nM	CC(C)c1nc(-c2ccc(NC(=O)Nc3ccc(C(=O)N(C)CCN(C)C)cc3)cc2)nc(N2CCOCC2)n1 [Example 306, N-[2-(dimethylamino)ethyl]-N-methyl-4-[({4-[4-(1-methylethyl)-6-morpholin-4-yl-1,3,5-triazin-2-yl]phenyl}carbamoyl)amino]benzamide]	

SMILES	IC50 [1]	IC50 ([2]; PC3-mm2 cells)	IC50 [2]	IC50 [3]	IC50 [4]	IC50 ([5]; read-out: IC50 PI3Kα)	other results
CC(C)Cc1nc(-c2ccc(NC(=O)Nc3ccc(N4CCN(C)CC4)cc3)cc2)nc(N2CCOCC2)n1 [Example 297, 1-[4-(4-methylpiperazin-1-yl)phenyl]-3-{4-[4-(2-methylpropyl)-6-morpholin-4-yl-1,3,5-triazin-2-yl]phenyl}urea]	10 nM		290 nM	115 nM	70 nM	38 nM	
